{"source": "patent US20070066627A1", "about": "“Hydrazone derivatives for combatting harmful insects and arachnids” (priority 2004, published 2007)", "assay_type_in_all_cases": "in vivo", "key": {"[1]": {"test_system": "2-Spotted Spider Mite (tetranychus urticae, OP-Resistant Strain)", "assay": "2-spotted spider mite test on Sieva lima bean plants", "conditions": "120 h, plants dipped, after 5 days, read-out: mortality compared to untreated controls", "procedure": "2.6 2-Spotted Spider Mite (tetranychus urticae, OP-Resistant Strain)\nSieva lima bean plants with primary leaves expanded to 7-12 cm were infested by placing on each a small piece from an infested leaf (with about 100 mites) taken from the main colony. This was done at about 2 hours before treatment to allow the mites to move over to the test plant to lay eggs. The piece of leaf used to transfer the mites was removed. The newly-infested plants were dipped in the test solution and allowed to dry. The test plants were kept under fluorescent light (24 hour photoperiod) at about 25° C. and 20-40% relative humidity. After 5 days, one leaf was removed and mortality counts were made."}, "[2]": {"test_system": "Orchid Thrips (dichromothrips corbetti)", "assay": "Orchid thrips floral-immersion test", "conditions": "96 h, adults, after 4 days, read-out: mortality compared to untreated controls", "procedure": "2.7 Orchid Thrips (dichromothrips corbetti)\nDichromothrips corbetti adults used for bioassay were obtained from a colony maintained continuously under laboratory conditions. For testing purposes, the test compound was diluted to a concentration of 500 ppm (wt compound:vol diluent) in a 1:1 mixture of acetone:water, plus 0.01% Kinetic® surfactant.\nThrips potency of each compound was evaluated by using a floral-immersion technique. Plastic petri dishes were used as test arenas. All petals of individual, intact orchid flowers were dipped into treatment solution for approximately 3 seconds and allowed to dry for 2 hours. Treated flowers were placed into individual petri dishes along with 10-15 adult thrips. The petri dishes were then covered with lids. All test arenas were held under continuous light and a temperature of about 28° C. for duration of the assay. After 4 days, the numbers of live thrips were counted on each flower, and along inner walls of each petri dish. The level of thrips mortality was extrapolated from pretreatment thrips numbers."}, "[3]": {"test_system": "Cotton Aphid (aphis gossypii)", "assay": "Cotton aphid test on cotton cotyledons", "conditions": "120 h, cotyledons dipped, after 5 days, read-out: mortality in comparison with untreated controls", "from_the_text": "2.2 Cotton Aphid (aphis gossypii)\n(§1) The active compounds were formulated in 50:50 acetone:water and 100 ppm Kinetic® surfactant.\nCotton plants at the cotyledon stage (one plant per pot) were infested by placing a heavily infested leaf from the main colony on top of each cotyledon. The aphids were allowed to transfer to the host plant overnight, and the leaf used to transfer the aphids was removed. The cotyledons were dipped in the test solution and allowed to dry. After 5 days, mortality counts were made."}, "[4]": {"test_system": "Silverleaf Whitefly (bemisia argentifolii)", "assay": "Silverleaf whitefly test on cotton plants", "conditions": "72 h, cotyledons dipped, adults, 3 days after treatment, read-out: mortality compared to untreated controls", "procedure": "2.5 Silverleaf Whitefly (bemisia argentifolii)\nas §1\nSelected cotton plants were grown to the cotyledon state (one plant per pot). The cotyledons were dipped into the test solution to provide complete coverage of the foliage and placed in a well-vented area to dry. Each pot with treated seedling was placed in a plastic cup and 10 to 12 whitefly adults (approximately 3-5 day old) were introduced. The insects were collected using an aspirator and an 0.6 cm, non-toxic Tygon® tubing (R-3603) connected to a barrier pipette tip. The tip, containing the collected insects, was then gently inserted into the soil containing the treated plant, allowing insects to crawl out of the tip to reach the foliage for feeding. The cups were covered with a reusable screened lid (150 micron mesh polyester screen PeCap from Tetko Inc). Test plants were maintained in the holding room at about 25° C. and 20-40% relative humidity for 3 days avoiding direct exposure to the fluorescent light (24 hour photoperiod) to prevent trapping of heat inside the cup. Mortality was assessed 3 days after treatment of the plants."}, "[5]": {"test_system": "Southern Armyworm (Spodoptera eridania), 2nd Instar Larvae", "assay": "Southern armyworm leaf-dip test, 2nd instar larvae", "conditions": "foliar, 120 h, observation at 5 days, read-out: mortality in comparison with untreated controls", "procedure": "2.1 Southern Armyworm (Spodoptera eridania), 2nd Instar Larvae\nThe active compounds were formulated for testing the activity against insects and arachnids as a 10.000 ppm solution in a mixture of 35% acetone and water, which was diluted with water, if needed.\nA Sieva lima bean leaf expanded to 78 cm in length is dipped in the test solution with agitation for 3 seconds and allowed to dry in a hood. The leaf is then placed in a 100×10 mm petri dish containing a damp filter paper on the bottom and ten 2nd instar caterpillars. At 5 days, observations are made of mortality, reduced feeding, or any interference with normal molting."}}}
{"molecule": "CC(C=NNC(=O)Cc1cccc2ccccc12)=Cc1cccc(F)c1", "note": "[Compound 21]", "values": [{"measurement": "mortality at 300 ppm", "setting": "[1]", "value": "> 75", "unit": "%"}]}
{"molecule": "CC(C=NNC(=O)c1ccc(C)s1)=Cc1ccc(OC(F)F)cc1", "note": "[Compound 91]", "values": [{"measurement": "mortality at 300 ppm", "setting": "[1]", "value": "> 75", "unit": "%"}]}
{"molecule": "O=C(NN=CC=Cc1ccccc1)c1ccc(Cl)s1", "note": "[Compound 96]", "values": [{"measurement": "mortality at 300 ppm", "setting": "[1]", "value": "> 75", "unit": "%"}]}
{"molecule": "CC(C=NNC(=O)c1[nH]cnc1C)=Cc1ccc(Cl)cc1Cl", "note": "[Compound 138]", "values": [{"measurement": "mortality at 300 ppm", "setting": "[1]", "value": "> 75", "unit": "%"}]}
{"molecule": "CC(C=NNC(=O)c1[nH]cnc1C)=Cc1cccc(F)c1", "note": "[Compound 144]", "values": [{"measurement": "mortality at 500 ppm", "setting": "[2]", "value": "> 95", "unit": "%"}]}
{"molecule": "CC(C=NNC(=O)c1ccccn1)=Cc1ccccc1", "note": "[Compound 156]", "values": [{"measurement": "mortality at 300 ppm", "setting": "[3]", "value": "> 75", "unit": "%"}, {"measurement": "mortality at 300 ppm", "setting": "[4]", "value": "> 80", "unit": "%"}]}
{"molecule": "CC(C=NNC(=O)c1ccc(C)cc1)=Cc1ccccc1", "note": "[Compound 183]", "values": [{"measurement": "mortality at 300 ppm", "setting": "[4]", "value": "> 80", "unit": "%"}, {"measurement": "mortality at 300 ppm", "setting": "[1]", "value": "> 75", "unit": "%"}, {"measurement": "mortality at 300 ppm", "setting": "[5]", "value": "> 80", "unit": "%"}]}
